Laboratory results as given in publication PMC9574929, “Development of Hydrogen Sulfide-Releasing Carbonic Anhydrases IX- and XII-Selective Inhibitors with Enhanced Antihyperalgesic Action in a Rat Model of Arthritis” (Journal of Medicinal Chemistry, 2022).
Entries after “also recorded” stand apart in the source; their conditions may differ.

Legend:
[1] = tested on: rat model of arthritis induced by the intra-articular injection of complete Freund's adjuvant (CFA); experiment: Incapacitance test, CFA-induced arthritis; assay type: in vivo; conditions: for reduction of spontaneous pain, Incapacitance test: single per os, 1 to 30 mg/kg, day 14 after CFA
Procedure: (§1) Articular damage was induced by injection of Complete Freund’s Adjuvant (CFA; Sigma-Aldrich, St Louis, MO, USA), containing 1 mg/mL of heat-killed and dried Mycobacterium tuberculosis in paraffin oil and mannide monooleate, into the tibiotarsal joint.[50] Briefly, the rats were lightly anesthetized with 2% isoflurane, the left leg skin was sterilized with 75% ethyl alcohol, and the lateral malleolus was located by palpation. A 28-gauge needle was then inserted vertically to penetrate the skin and turned distally for insertion into the articular cavity at the gap between the tibiofibular and tarsal bone until a distinct loss of resistance was felt. A volume of 50 μL of CFA was then injected (day 0). Control rats received 50 μL of saline solution (day 0) in the tibiotarsal joint.
(§2) The hybrid derivatives 26, 29, 30, and 31 (1, 10, and 30 mg/kg) were suspended in a 1% solution of carboxymethylcellulose (CMC) sodium salt and acutely per os administered starting from day 14 after CFA i.a. injection, when arthritis was well established. The H2S releaser 3 and CAI 15 were also administered alone or in coadministration at the equimolar dose of compound 30 30 mg/kg (13.23 and 17.71 mg/kg, respectively). The antihypersensitivity effects were evaluated over time by the Paw pressure and Incapacitance tests.
Weight-bearing changes were measured using an incapacitance apparatus (Linton Instrumentation, Norfolk, U.K.) to detect changes in postural equilibrium after a hind limb injury.[53],[54] Rats were trained to stand on their hind paws in a box with an inclined plane (65° from horizontal). This box was placed above the incapacitance apparatus. This allowed us to independently measure the weight that the animal applied on each hind limb. The value reported for each animal is the mean of five consecutive measurements. In the absence of hind limb injury, rats applied an equal weight on both hind limbs, indicating postural equilibrium, whereas an unequal distribution of weight on the hind limbs indicated a monolateral decreased pain threshold. Data are expressed as the difference between the weight applied to the limb contralateral to the injury and the weight applied to the ipsilateral limb (Δ weight).

hCA IX = hCA IX (Homo sapiens, UniProt Q16790); experiment: Stopped-flow CO2 hydrase assay, hCA IX; conditions: selectivity index, ratio of KIs
Procedure: (§3) The uncatalyzed rates were determined in the same manner and subtracted from the total observed rates. Stock solutions of inhibitor (0.1 mM) were prepared in distilled-deionized water and dilutions up to 0.01 nM were done thereafter with the assay buffer. […] The inhibition constants were obtained by nonlinear least-squares methods using PRISM 3 and the Cheng–Prusoff equation, as reported earlier,[39] and represent the mean from at least three different determinations.

hCA IV = hCA IV (Homo sapiens, UniProt P22748); experiment: Stopped-flow CO2 hydrase assay, hCA IV; conditions: selectivity index, ratio of KIs
Sequence of hCA IV (P22748 19-312): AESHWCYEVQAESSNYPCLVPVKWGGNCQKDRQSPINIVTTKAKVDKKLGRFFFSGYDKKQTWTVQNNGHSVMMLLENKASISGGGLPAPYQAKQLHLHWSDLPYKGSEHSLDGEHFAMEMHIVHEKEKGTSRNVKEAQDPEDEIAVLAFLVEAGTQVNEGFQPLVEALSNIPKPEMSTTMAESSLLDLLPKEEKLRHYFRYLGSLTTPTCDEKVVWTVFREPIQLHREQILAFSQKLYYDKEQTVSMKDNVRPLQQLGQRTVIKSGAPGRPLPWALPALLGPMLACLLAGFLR
Procedure: as §3

[2] = tested on: rat model of arthritis induced by the intra-articular injection of complete Freund's adjuvant (CFA); experiment: Paw pressure test, CFA-induced arthritis; assay type: in vivo; conditions: for antihyperalgesic effect, Paw pressure test, 30 mg/kg: 30 mg/kg per os; for antihyperalgesic effect, Paw pressure test, 1 mg/kg: 1 mg/kg per os; for weight tolerated on the ipsilateral paw, Paw pressure test, 10 and 30 mg/kg: 10 and 30 mg/kg per os, from 15 min up to 45 min after treatment, vs CFA-treated animals
Procedure: as §1, §2
The nociceptive threshold of rats was determined with an analgesimeter (Ugo Basile, Varese, Italy), according to the method described by Leighton et al.[51] and Maresca et al.,[52] (doi: 10.1111/jphp.12828). Briefly, a constantly increasing pressure was applied to a small area of the dorsal surface of the hind paw using a blunt conical probe by a mechanical device. Mechanical pressure was increased until vocalization or a withdrawal reflex occurred while rats were lightly restrained. Vocalization or withdrawal reflex thresholds were expressed in grams. […]

rats = experiment: Toxicity and Irwin test; assay type: in vivo, rat; set-up: key to Irwin test: Spontaneous activity / Irwin test: Straightening reflex / Irwin test: Hypo-hyperthermia / Irwin test: Cleaning / Irwin test: Curiosity / Irwin test: Reactivity / Irwin test: Convulsions: observer's semiquantitative score (0 to +4, −4 to 0, or −4 to +4); conditions: 30 mg/kg; for Irwin test: Cyanosis / Irwin test: Exolphthalmos / Irwin test: Flush / Irwin test: Lacrimation / Irwin test: Pallor / Irwin test: Piloerection / Irwin test: Salivation / Irwin test: Writhing / Irwin test: Palpebral opening / Irwin test: Hypo-hyperthermia: Autonomic signes; for Irwin test: Cyanosis / Irwin test: Exolphthalmos / Irwin test: Flush / Irwin test: Lacrimation / Irwin test: Pallor / Irwin test: Piloerection / Irwin test: Salivation / Irwin test: Writhing / Irwin test: Passivity / Irwin test: Vocalization / Irwin test: Ataxia / Irwin test: Stereotipies / Irwin test: Straub tail / Irwin test: Tremors / Irwin test: Delayed death (48 h) / Irwin test: Immediate death: limits 0 - 4; for Irwin test: Palpebral opening / Irwin test: Cleaning / Irwin test: Curiosity / Irwin test: Reactivity / Irwin test: Spontaneous activity / Irwin test: Straightening reflex / Irwin test: Palpebral reflex / Irwin test: Convulsions: limits 4 - 0; for Irwin test: Hypo-hyperthermia: limits -4/+4; for Irwin test: Passivity / Irwin test: Vocalization / Irwin test: Cleaning / Irwin test: Curiosity / Irwin test: Reactivity / Irwin test: Spontaneous activity: Behaviour; for Irwin test: Ataxia / Irwin test: Stereotipies / Irwin test: Straightening reflex: Movement; for Irwin test: Physical strenght: Muscolar tone, limits 4 – 0; for Irwin test: Palpebral reflex: Reflexes; for Irwin test: Straub tail / Irwin test: Tremors / Irwin test: Convulsions: S.N.C. excitement; for Irwin test: Delayed death (48 h) / Irwin test: Immediate death: Toxicity
Procedure: Toxicity was evaluated after a single acute administration of 26, 29, 30, and 31 at 30 mg/kg. […] For the Irwin test, each rat was individually placed in a transparent cage (26 × 41 cm), and 26 neurobehavioral or physiological parameters were systematically assessed according to Irwin (1968)[55] and already reported by Berrino and colleagues in similar studies.[30] Behavioral, autonomic, and neurological manifestations produced by compound administration in rats were evaluated: motor displacement, motor reflexes, stereotypies, grooming, reaction to painful or environmental stimuli (analgesia and irritability), startle response, secretions, excretions, respiratory movements, skin color and temperature, piloerection, exophthalmos, eyelid and corneal reflexes, muscle tone, ataxia, tremors, head twitches, jumps, convulsions, Straub tail, and other signs or symptoms. For postural reflexes (righting reflex) and other signs such as piloerection, exophthalmia (exaggerated protrusion of the eyeball), ataxia, tremors, and Straub tail, only presence or absence was recorded. Skin color was evaluated qualitatively (pale, red, or purple); other signs were evaluated semiquantitatively, according to the observer’s personal scale (0 to +4, −4 to 0, or −4 to +4). The terms sedation and excitation express the final interpretation of a group of signs: reduced motor activity, reduced startle response, eyelid ptosis, and reduced response to manual manipulation, for the former; and increased motor activity, increased startle response, increased response to manual manipulation, and exophthalmia, for the latter. Hyperactivity includes running, jumping, and attempting to escape from the container. Trained observers were not informed about the specific treatment of each animal group carried out in this test.

hCA XII = hCA XII (Homo sapiens, UniProt O43570); experiment: Stopped-flow CO2 hydrase assay, hCA XII; conditions: selectivity index, ratio of KIs
Sequence of hCA XII (O43570 25-354): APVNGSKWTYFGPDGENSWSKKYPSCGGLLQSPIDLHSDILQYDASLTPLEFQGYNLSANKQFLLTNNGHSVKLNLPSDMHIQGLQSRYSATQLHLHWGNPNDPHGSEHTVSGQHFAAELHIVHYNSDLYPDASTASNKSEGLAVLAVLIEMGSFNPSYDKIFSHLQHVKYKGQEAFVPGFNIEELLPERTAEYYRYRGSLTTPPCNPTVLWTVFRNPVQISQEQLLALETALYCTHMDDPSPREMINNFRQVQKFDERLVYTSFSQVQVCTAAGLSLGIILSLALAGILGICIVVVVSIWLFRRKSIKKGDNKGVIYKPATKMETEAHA
Procedure: as §3

SMILES | reduction of spontaneous pain, Incapacitance test [1] | SI CA I/IX (hCA IX) | SI CA II/IX (hCA IX) | SI CA I/IV (hCA IV) | SI CA II/IV (hCA IV) | Irwin test: Cyanosis (rats) | Irwin test: Exolphthalmos (rats) | Irwin test: Flush (rats) | Irwin test: Lacrimation (rats) | Irwin test: Pallor (rats) | Irwin test: Piloerection (rats) | Irwin test: Salivation (rats) | Irwin test: Writhing (rats) | Irwin test: Palpebral opening (rats) | Irwin test: Hypo-hyperthermia (rats) | Irwin test: Passivity (rats) | Irwin test: Vocalization (rats) | Irwin test: Cleaning (rats) | Irwin test: Curiosity (rats) | Irwin test: Reactivity (rats) | further results
COc1cc([N+](=O)[O-])ccc1CN(CCc1ccc(S(N)(=O)=O)cc1)C(=O)c1ccc(-c2cssc2=S)cc1 [Compound 26, N-(2-Methoxy-4-nitrobenzyl)-N-(4-sulfamoylphenethyl)-4-(3-thioxo-3H-1,2-dithiol-4-yl)benzamide] | reduced spontaneous pain in a dose-dependent manner | 1633 | 719 | 1.6 | 0.7 | 0 | 0 | 0 | 0 | 0 | 0 | 0 | 0 | 4 | 0 | 0 | 0 | 0 | 4 | 4 | antihyperalgesic action at 45 min, Incapacitance test ([1]; per os, 45 min after treatment): almost completely reverting spontaneous pain after 45 min; also recorded: completely reverting pain 45 min after treatment; antihyperalgesic effect, Paw pressure test, 30 mg/kg ([2]; day 14 after CFA): completely reverted the pain state 45 min after administration; also recorded: counteracted the mechanical hyperalgesia 45 min after injection; also recorded: completely reverting pain 45 min after treatment; antihypersensitivity effect, Paw pressure test ([2]; single per os, 1 to 30 mg/kg, day 14 after CFA): evoked an antihypersensitivity effect in a dose-dependent manner; Irwin test: Spontaneous activity (rats): 4; Irwin test: Ataxia (rats): 0; Irwin test: Stereotipies (rats): 0; Irwin test: Straightening reflex (rats): 4; Irwin test: Physical strenght (rats): 4; Irwin test: Palpebral reflex (rats): 4; Irwin test: Straub tail (rats): 0; Irwin test: Tremors (rats): 0; Irwin test: Convulsions (rats): 0; Irwin test: Delayed death (48 h) (rats): 0; Irwin test: Immediate death (rats): 0; SI CA I/XII (hCA XII): 870; SI CA II/XII (hCA XII): 383
CSc1ccc(CN(CCc2ccc(S(N)(=O)=O)cc2)C(=O)c2ccc(-c3cssc3=S)cc2)cc1 [Compound 29, N-(4-(Methylthio)benzyl)-N-(4-sulfamoylphenethyl)-4-(3-thioxo-3H-1,2-dithiol-4-yl)benzamide] | reduced spontaneous pain in a dose-dependent manner | 156 | 209 | 17.9 | 23.9 | 0 | 0 | 0 | 0 | 0 | 0 | 0 | 0 | 4 | 0 | 0 | 0 | 0 | 4 | 4 | antihyperalgesic effect, Paw pressure test, 1 mg/kg [2]: ineffective; weight tolerated on the ipsilateral paw, Paw pressure test, 10 and 30 mg/kg [2]: significantly increased the weight tolerated; Irwin test: Spontaneous activity (rats): 4; Irwin test: Ataxia (rats): 0; Irwin test: Stereotipies (rats): 0; Irwin test: Straightening reflex (rats): 4; Irwin test: Physical strenght (rats): 4; Irwin test: Palpebral reflex (rats): 4; Irwin test: Straub tail (rats): 0; Irwin test: Tremors (rats): 0; Irwin test: Convulsions (rats): 0; Irwin test: Delayed death (48 h) (rats): 0; Irwin test: Immediate death (rats): 0; SI CA I/XII (hCA XII): 858; SI CA II/XII (hCA XII): 1148
NS(=O)(=O)c1ccc(CCN(Cc2cccc3ccccc23)C(=O)c2ccc(-c3cssc3=S)cc2)cc1 [Compound 30, N-(Naphthalen-1-ylmethyl)-N-(4-sulfamoylphenethyl)-4-(3-thioxo-3H-1,2-dithiol-4-yl)benzamide] | slightly greater efficacy at 10 mg/kg in comparison to the dose of 30 mg/kg | >641 | 286 | >41.0 | 18.3 | 0 | 0 | 0 | 0 | 0 | 0 | 0 | 0 | 4 | 0 | 0 | 0 | 0 | 4 | 4 | effect of the lowest dose, Incapacitance test ([1]; 1 mg/kg per os): ineffective; antihyperalgesic effect, Paw pressure test, 1 mg/kg [2]: ineffective; antihyperalgesic effect, Paw pressure test, 30 mg/kg ([2]; day 14 after CFA): greater antihyperalgesic action with respect to 3, 15, and their co-administration; weight tolerated on the ipsilateral paw, Paw pressure test, 10 and 30 mg/kg [2]: significantly increased the weight tolerated; Irwin test: Spontaneous activity (rats): 4; Irwin test: Ataxia (rats): 0; Irwin test: Stereotipies (rats): 0; Irwin test: Straightening reflex (rats): 4; Irwin test: Physical strenght (rats): 4; Irwin test: Palpebral reflex (rats): 4; Irwin test: Straub tail (rats): 0; Irwin test: Tremors (rats): 0; Irwin test: Convulsions (rats): 0; Irwin test: Delayed death (48 h) (rats): 0; Irwin test: Immediate death (rats): 0; SI CA I/XII (hCA XII): >1428; SI CA II/XII (hCA XII): 637
